Experimental data taken from ChEMBL document CHEMBL2086334, “Fluorogenic assay of alkaline phosphatase activity based on the modulation of excited-state intramolecular proton transfer” (Bioorg Med Chem Lett, 2012).
pIC50: −log10 of the molar value. The source made the active and inactive calls. The rule behind the calls is not given here.

Experiments:
[1] = Inhibition of alkaline phosphatase
[2] = Activity of alkaline phosphatase assessed as compound hydrolysis at 20 uM at 0.1 to 50 nM enzyme concentration measured every 1 min for 10 mins by fluorescence spectrophotometry
[3] = Activity of levamisole-pretreated alkaline phosphatase assessed as compound hydrolysis at 20 uM measured every 0.5 mins for 10 mins by fluorescence spectrophotometry
[4] = Activity of alkaline phosphatase assessed as compound hydrolysis at 20 uM assessed as increase in fluorescence intensity every 1 min for 10 mins by fluorescence spectrophotometry relative to control
[5] = Activity of alkaline phosphatase assessed as compound hydrolysis assessed as increase in fluorescence intensity measured every 30 secs for 10 mins by Lineweaver-Burk plot analysis

SMILES | pIC50 [1] | Activity [2] | Activity [3] | fold change (FC) [4] | Km [5] [µM] | kcat [5] [s⁻¹]
c1ccc([C@H]2CN3CCSC3=N2)cc1 [LEVAMISOLE] | 4.88 | – | – | – | – | –
O=P(O)(O)Oc1ccccc1-c1nc(-c2ccccc2)cs1 | – | Active | inactive | 455 | 1.9 | 0.09
